Results on one compound are retold here after US9505735B2, “Compounds for treating infectious diseases” (Whitehead Institute for Biomedical Research, priority 2012, dated 2016).

Structures are written as SMILES.

The target of one data set is T1, Gwt1 (Saccharomyces cerevisiae, UniProt P47026).
T1 construct: Wildtype S. cerevisiae BY4741; endogenous in cells; host or cells: S. cerevisiae BY4741 (wild type)
T1 sequence (P47026 1-490): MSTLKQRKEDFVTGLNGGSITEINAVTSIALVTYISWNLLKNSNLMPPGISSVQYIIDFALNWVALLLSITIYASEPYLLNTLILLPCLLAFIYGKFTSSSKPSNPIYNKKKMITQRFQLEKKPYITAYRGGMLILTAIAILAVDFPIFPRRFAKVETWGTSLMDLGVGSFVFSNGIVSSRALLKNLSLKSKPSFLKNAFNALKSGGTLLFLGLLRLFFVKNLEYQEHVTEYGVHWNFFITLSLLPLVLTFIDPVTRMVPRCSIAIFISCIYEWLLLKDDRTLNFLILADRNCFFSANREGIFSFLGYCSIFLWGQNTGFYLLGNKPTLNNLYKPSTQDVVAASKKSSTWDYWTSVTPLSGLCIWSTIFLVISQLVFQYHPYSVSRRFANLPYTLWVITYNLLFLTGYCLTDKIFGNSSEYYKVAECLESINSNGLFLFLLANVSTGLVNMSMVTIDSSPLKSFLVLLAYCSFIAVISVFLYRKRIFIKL
Kind of data set: In vitro acylation assay with yeast membranes. The data set is classed as biochemical, S. cerevisiae. The protocol: Experiments were performed using a previously published protocol (Umemara, et al. (2003) J Biol Chem 278, 23639-23647) with the following modifications; UDP[^3H]GlcNAc was used instead of [^14C] and TLC plates were imaged by autoradiography. Lipid extracts were treated overnight with phosphatidylinositol-specific phospholipase C to confirm that the band identified as GlcN-(acyl)PI was resistant to cleavage (data not shown).
Production of GPI-anchors begins on the cytoplasmic surface of the ER but is completed on the luminal side. Gwt1 (in yeast) or PIG-W (mammalian) acts at the first step on the luminal side of the ER, the acylation of glucosamine phosphatidylinositol (GlcN-PI) (FIG. 2b) (Sagane, et al. (2011) J Biol Chem 286, 14649-14658; Murakami, et al. (2003) Mol Biol Cell 14, 4285-4295). To provide direct biochemical evidence that Gwt1 is the proximal protein target of gepinacin in vitro acylation reactions were performed using yeast membrane preparations. UDP[^3H]GlcNAc was incubated with the membranes, and the resulting lipid products were recovered by chemical extraction and fractionated by silica gel thin layer chromatography (TLC). The appearance of a phospholipase-C insensitive band indicated the production of the acylated product.

Another data set has as its system NIH 3T3 cells. Kind of data set: Co-culture of mammalian cells and C. albicans: mammalian cells. The class given is cell-based. The following applies: 40 μM, 24 hours. The protocol:
For co-culture experiments, confluent layers of NIH 3T3 cells were established in 6-well plates. The following day, the medium was replaced with RPMI1640+10% FBS containing the amphotericin-resistant strain CaAmphR at […] colony forming units per ml and 40 μM gepinacin or an equivalent amount of DMSO. Co-cultures were incubated for 24 hours at 37° C. in a micro-isolator box. Images were acquired on a Nikon Eclipse TS100 microscope at 40×.
Having determined the target of gepinacin in fungi, gepinacin's effect on the human ortholog of Gwt1, PIG-W, was examined. To determine if gepinacin remained active under mammalian cell culture conditions cultured fungi were cultured (either an amphotericin B-resistant (FIG. 3a) or fluconazole-resistant (data not shown) isolate of C. albicans) and mammalian cells together with 40 μM gepinacin. […] PIG-W (and GPI anchor biosynthesis) is not essential for mammalian cells in culture.

The next data set concerns Gas1 and CPY maturation. Kind of data set: Protein trafficking analysis (immunoblot of reporter proteins). The following applies: 10 μM, 1 hour. The class given is cell-based, S. cerevisiae. How it is done: (A) Immunoblots of lysates prepared from S. cerevisiae treated with gepinacin showing GPI-anchor-selective impairment of protein maturation. The unprocessed (u), precursor (p), and mature (m) forms of the reporter proteins are indicated. The identity of the tagged reporter proteins (top of panel) and the antibodies used for their detection (bottom of panel) are also indicated. Treatment conditions are DMSO (0.05%), gepinacin (GPN, 10 μM) or tunicamycin (Tun, 10 μM). The same lysate was used for both blots. […] GFP expression was monitored by flow cytometry. (C) Anti-fungal susceptibility testing of strains deleted for IRE1 (activator of the UPR) or HAC1 (effector of the UPR) showing their increased sensitivity to gepinacin.
HA-tagged GAS1 was expressed in strain BY4741 CPY-GFP (Yeast GFP collection (Huh, et al. (2003) Nature 425, 686-691) under control of its own promoter using plasmid pCM-HA-GAS1. This construct was created as previously reported except in a gateway plasmid backbone (Fujita, et al. (2006) Mol Biol Cell 17, 834-850). To assess effects on trafficking, strains were incubated for 1 hour at 30° C. with test compounds. Total cellular protein (5 μg) was separated by electrophoresis (Invitrogen 8% gels) and transferred to nitrocellulose membranes. Blots were hybridized with antibodies against HA (Covance), GFP (Roche), or CPY (Invitrogen). Sizes for the various post-translationally modified products of Gas1HA2 and CPY have been previously reported (Fujita, et al. (2006) Mol Biol Cell 17, 834-850). CPY-GFP was used to facilitate discrimination of CPY processing steps because GFP is cleaved from CPY in the yeast vacuole. The experiment, however, was also performed with untagged CPY with the same results.
In general terms: A western blot detects proteins with antibodies after separation by electrophoresis.

Data set [1] deals with S. cerevisiae strain Sigma 1278B. Kind of data set: Filamentation on solid media. The following applies: 5 μM, 6 days. The class given is cell-based. The protocol: For liquid assays, C. albicans strains were grown overnight in YPD with DMSO or 5 μM gepinacin. After dilution to an OD600 of 0.1 in Spider media, growth was continued for an additional 3 hours with agitation at 37° C. in the presence of compound before transfer to a 24 well plate for imaging (Shen, et al. (2008) Proc Natl Acad Sci USA 105, 20918-20923). Assays with S. cerevisiae strain Sigma 1278B on solid media were performed as previously described (Liu, et al. (1994) Science 266, 1723-1726) except gepinacin was added directly to partially cooled plate media and colonies were imaged after growth for 6 or 9 days at 30° C.

Regarding `COc1ccc(NC(=O)COc2cccc(OCC(C)C)c2)cc1` [gepinacin], the “acyltransferase activity, strain expressing the yeast gene” value at Gwt1 (membranes of low copy plasmid strain) is “potently inhibited”. Moreover, the “acylation of GlcN-PI” value on Gwt1 (yeast membrane preparations, inactive analog at 10 μM) is given as “inhibited the acylation of GlcN-PI at low micromolar concentration”. The “effect on mammalian cells in co-culture” value with NIH 3T3 cells was “no effect”. In the data set with Gas1 and CPY maturation, the “CPY (not GPI-anchored) processing” value is listed as “identical” and the “Gas1 (GPI-anchored) maturation: mature versus precursor form” value is “inverted”. The “filamentation on solid media” value in data set [1] is given as “blocked filamentation”.
